Assay [1] deals with Recombinant human Cbl-b (aa 36-427) (Homo sapiens (Human), UniProt Q13191). Briefly: Cbl-b Biochemical Assay (TR-FRET). Conditions: read-out: TR-FRET hCbl-b IC50. The essentials: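 IC50 from 4-parameter fit of % inhibition (DMSO max, reference-inhibitor min), duplicate ten-point series. Compound preincubated with 6 nM Cbl-b, then Src-Zap70 (1-2.5 nM)/0.5 mM ATP reaction 60 min RT; EDTA quench with labelled UBE2D2-Ub and streptavidin-terbium, 60 min, HTRF at 520 nm.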

For assay [2], the target named is Recombinant human c-Cbl (aa 47-435) (Homo sapiens (Human), UniProt P22681). Briefly: c-Cbl Biochemical Assay (TR-FRET). How it is done: Recombinant human c-Cbl (aa 47-435) was expressed in E. coli, purified and biotinylated in vitro. The protein was diluted to 12 nM in freshly prepared assay buffer consisting of 50 mM HEPES, pH 7.0, 100 mM NaCl, 5 mM MgCl2, 0.01% Triton-X 100, 0.01% BSA and 1 mM DTT. Recombinant human Src (aa 254-536)-[…]-Zap-70 (aa 281-297) fusion protein was expressed in E. coli and purified. Protein was diluted in assay buffer to 5-20 nM and ATP was added to 1 mM. Recombinant human UBE2D2([…]) was expressed in E. coli, purified and ubiquitinated and Bodipy labelled in vitro. Protein was diluted to 200 nM in assay buffer without MgCl2 (or Cisbio PPI buffer). Streptavidin-Terbium was added to 2 nM and EDTA to 10 mM, to provide a binding assay mix. Compounds were dissolved in DMSO and diluted to prepare a ten-point half log dilution series. 100 nl of each compound concentration was dispensed in duplicate in a 384 well black assay plate using acoustic dispensing. Wells for maximum signal controls received 100 nl of DMSO only and wells for minimum controls received 100 nl of a reference inhibitor compound at a final assay concentration of […] to produce 100% inhibition. 5 μl of diluted c-cbl enzyme was added to all wells of the assay plate and incubated at RT for 30 min. The enzyme assay was initiated by addition of 5 μl of Src-Zap/ATP mix to all wells, and the plate incubated at RT for 60-90 min. The enzyme reaction was terminated and the binding reaction was initiated by adding 10 μl of binding assay mix to all wells and incubating the plate at RT for 60 min prior to assay read. Final assay conditions consisted of 6 nM c-cbl, 2.5-10 nM Src-Zap70, 0.5 mM ATP, 1% (v/v) DMSO (enzyme reaction) and 100 nM UBE2D2([…])-Ub-FL-BODIPY, 5 mM EDTA, 1 nM Streptavidin-Tb (binding reaction). The HTRF assay signal was measured at 520 nm on an Envision plate reader, with reference signal at 485 or 620 nm. Data was normalized using maximum and minimum assay controls: % Inhibition=100-(100*((maximum control)-unknown)/(maximum control-minimum control)). A 4-parameter dose-response equation was used to fit the normalized dose-response data and derive an IC50 for test compounds.
Background: TR-FRET usually uses a lanthanide donor and a delayed reading to cut background.

SMILES strings stand for the structures. A value given as a limit tells only on which side of the number the result lay.

Recombinant human Cbl-b (aa 36-427), sequence (Q13191 36-427): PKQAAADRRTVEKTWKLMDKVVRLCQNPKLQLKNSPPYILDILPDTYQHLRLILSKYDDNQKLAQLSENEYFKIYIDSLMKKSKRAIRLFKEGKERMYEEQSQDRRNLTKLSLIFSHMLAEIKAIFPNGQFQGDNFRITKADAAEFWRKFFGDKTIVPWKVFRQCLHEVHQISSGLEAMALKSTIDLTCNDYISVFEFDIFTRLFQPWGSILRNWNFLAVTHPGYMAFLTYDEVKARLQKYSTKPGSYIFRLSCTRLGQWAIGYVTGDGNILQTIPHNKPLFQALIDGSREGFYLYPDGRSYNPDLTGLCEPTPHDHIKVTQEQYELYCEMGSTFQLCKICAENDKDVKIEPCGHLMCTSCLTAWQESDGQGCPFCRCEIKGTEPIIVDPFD
Recombinant human c-Cbl (aa 47-435), sequence (P22681 47-435): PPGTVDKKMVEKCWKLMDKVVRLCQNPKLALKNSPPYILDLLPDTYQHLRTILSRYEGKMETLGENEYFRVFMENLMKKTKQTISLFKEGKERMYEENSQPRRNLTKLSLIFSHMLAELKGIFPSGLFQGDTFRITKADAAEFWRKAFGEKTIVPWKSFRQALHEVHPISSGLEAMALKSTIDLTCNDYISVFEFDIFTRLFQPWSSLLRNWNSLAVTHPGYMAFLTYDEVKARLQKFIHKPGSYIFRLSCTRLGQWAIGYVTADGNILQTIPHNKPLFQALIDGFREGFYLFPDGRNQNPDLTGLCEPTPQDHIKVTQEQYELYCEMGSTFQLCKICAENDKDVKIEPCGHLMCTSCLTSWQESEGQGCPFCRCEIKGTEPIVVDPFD

In general, IC50 refers to the point on the concentration scale where inhibition reaches its midpoint. Consider `C[C@@H](c1ccc2c(c1)C(=O)N(c1cc(-c3ccc(C#N)cc3-c3nncn3C)cc(C3CC3)n1)C2)N1CC2(COC2)C1` [AOD-2, 4-(2-Cyclopropyl-6-{6-[(1S)-1-{2-oxa-6-azaspiro[3.3]heptan-6-yl}ethyl]-1-oxo-3H-isoindol-2-yl}pyridin-4-yl)-3-(4-methyl-1,2,4-triazol-3-yl)benzonitrile], for which the IC50 in assay [1] and in assay [2] was at most 200 nM throughout. As for `CCOc1cc(-c2ccc(C#N)cc2-c2nncn2C)cc(N2Cc3ccc(CNCCOC)cc3C2=O)n1` [AHS-2, 4-(2-Ethoxy-6-(6-(((2-methoxyethyl)amino)methyl)-1-oxoisoindolin-2-yl)pyridin-4-yl)-3-(4-methyl-4H-1,2,4-triazol-3-yl)benzonitrile], the IC50 in assay [1] and in assay [2] was at most 200 nM in each case. Regarding `Cn1cnnc1-c1cc(C#N)ccc1-c1cc(C2CC2)nc(N2Cc3c(F)cc(CNC4CC4)cc3C2=O)c1` [ALR-1, 4-(2-Cyclopropyl-6-{6-[(cyclopropylamino)methyl]-4-fluoro-1-oxo-3H-isoindol-2-yl}pyridin-4-yl)-3-(4-methyl-1,2,4-triazol-3-yl)benzonitrile], the IC50 in assay [1] and in assay [2] was at most 200 nM in each case. Regarding `Cn1cnnc1-c1cc(C#N)ccc1-c1cc(C2CC2)nc(N2Cc3c(F)cc(CN[C@]4(C)COC[C@@H]4O)cc3C2=O)c1` (stereo in doubt) [AOF-9, 4-[2-Cyclopropyl-6-(4-fluoro-6-{[(4-hydroxy-3-methyloxolan-3-yl)amino]methyl}-1-oxo-3H-isoindol-2-yl)pyridin-4-yl]-3-(4-methyl-1,2,4-triazol-3-yl)benzonitrile], the IC50 in assay [1] and in assay [2] was under 200 nM in each case. Turning to `C[C@H]1CCCN(Cc2ccc3c(c2)C(=O)N(c2cc(-c4ccc(C#N)cc4-c4nncn4C)cc(C4CC4)n2)C3)C1` [ALS-1, 4-[2-Cyclopropyl-6-(6-{[(3S)-3-methylpiperidin-1-yl]methyl}-1-oxo-3H-isoindol-2-yl)pyridin-4-yl]-3-(4-methyl-1,2,4-triazol-3-yl)benzonitrile], the IC50 in assay [1] and in assay [2] was at most 200 nM in each case. Turning to `COC[C@@H](C)NCc1ccc2c(c1)C(=O)N(c1cc(-c3ccc(C#N)cc3-c3nncn3C)cc(C3CC3)n1)C2` [AIK-2, 4-{2-Cyclopropyl-6-[6-({[(2R)-1-methoxypropan-2-yl]amino}methyl)-1-oxo-3H-isoindol-2-yl]pyridin-4-yl}-3-(4-methyl-1,2,4-triazol-3-yl)], the IC50 in assay [1] and in assay [2] was at most 200 nM in each case. In the case of `C[C@H](NCC1COC1)c1ccc2c(c1)C(=O)N(c1cc(-c3ccc(C#N)cc3-c3nncn3C)cc(C3CC3)n1)C2` [ANO-1, (S)-4-(2-Cyclopropyl-6-(6-(1-((oxetan-3-ylmethyl)amino)ethyl)-1-oxoisoindolin-2-yl)pyridin-4-yl)-3-(4-methyl-4H-1,2,4-triazol-3-yl)benzonitrile], the IC50 in assay [1] and in assay [2] was at most 200 nM in each case. Take `CO[C@H](C)[C@@H](C)NCc1cc(F)c2c(c1)C(=O)N(c1cc(-c3ccc(C#N)cc3-c3nncn3C)cc(C3CC3)n1)C2` [ALC-2, 4-{2-Cyclopropyl-6-[4-fluoro-6-({[(2R,3R)-3-methoxybutan-2-yl]amino}methyl)-1-oxo-3H-isoindol-2-yl]pyridin-4-yl}-3-(4-methyl-1,2,4-triazol-3-yl)benzonitrile]: the IC50 in assay [1] and in assay [2] was at most 200 nM in each case. As for `Cn1cnnc1-c1cc(C#N)ccc1-c1cc(C2CC2)nc(N2Cc3c(F)cc(CNCC4(F)CCC4)cc3C2=O)c1` [AKK-1, 4-{2-Cyclopropyl-6-[4-fluoro-6-({[(1-fluorocyclobutyl)methyl]amino}methyl)-1-oxo-3H-isoindol-2-yl]pyridin-4-yl}-3-(4-methyl-1,2,4-triazol-3-yl)benzonitrile], the IC50 in assay [1] and in assay [2] was at most 200 nM each time.

As to `Cn1cnnc1-c1cc(C#N)ccc1-c1cc(C2CC2)nc(N2Cc3c(F)cc(CNCC4(F)CC4)cc3C2=O)c1` [AKZ-2, 4-{2-Cyclopropyl-6-[4-fluoro-6-({[(1-fluorocyclopropyl)methyl]amino}methyl)-1-oxo-3H-isoindol-2-yl]pyridin-4-yl}-3-(4-methyl-1,2,4-triazol-3-yl)benzonitrile], the IC50 in assay [1] and in assay [2] was at most 200 nM throughout. As for `Cn1cnnc1-c1cc(C#N)ccc1-c1cc(C2CC2)nc(N2Cc3ccc(CNCC4CCC4)cc3C2=O)c1` [AIA-2, 4-[2-(6-{[(Cyclobutylmethyl)amino]methyl}-1-oxo-3H-isoindol-2-yl)-6-cyclopropylpyridin-4-yl]-3-(4-methyl-1,2,4-triazol-3-yl)benzonitrile], the IC50 in assay [1] and in assay [2] was at most 200 nM in each case. As to `COCCN(C)Cc1cc(F)c2c(c1)C(=O)N(c1cc(-c3ccc(C#N)cc3-c3nncn3C)cc(C3CC3)n1)C2` [ANT-1, 4-[2-Cyclopropyl-6-(4-fluoro-6-{[(2-methoxyethyl)(methyl)amino]methyl}-1-oxo-3H-isoindol-2-yl)pyridin-4-yl]-3-(4-methyl-1,2,4-triazol-3-yl)benzonitrile], the IC50 in assay [1] and in assay [2] was at most 200 nM throughout. Turning to `CN(Cc1ccc2c(c1)C(=O)N(c1cc(-c3ccc(C#N)cc3-c3nncn3C)cc(C3CC3)n1)C2)CC1CCC1` [AMF-1, 4-[2-(6-{[(cyclobutylmethyl)(methyl)amino]methyl}-1-oxo-3H-isoindol-2-yl)-6-cyclopropylpyridin-4-yl]-3-(4-methyl-1,2,4-triazol-3-yl)benzonitrile], the IC50 in assay [1] and in assay [2] was at most 200 nM throughout. As to `Cn1cnnc1-c1cc(C#N)ccc1-c1cc(C2CC2)nc(N2Cc3ccc(CNC4CCOCC4)cc3C2=O)c1` [AMO-2, 4-(2-Cyclopropyl-6-{6-[(oxan-4-ylamino)methyl]-1-oxo-3H-isoindol-2-yl}pyridin-4-yl)-3-(4-methyl-1,2,4-triazol-3-yl)benzonitrile], the IC50 in assay [1] and in assay [2] was at most 200 nM throughout. With `Cn1cnnc1-c1cc(C#N)ccc1-c1cc(C2CC2)nc(N2Cc3ccc(CN4CC5(COC5)C4)cc3C2=O)c1` [AOL-1, 4-[2-Cyclopropyl-6-(6-{2-oxa-6-azaspiro[3.3]heptan-6-ylmethyl}-1-oxo-3H-isoindol-2-yl)pyridin-4-yl]-3-(4-methyl-1,2,4-triazol-3-yl)benzonitrile], the IC50 in assay [1] and in assay [2] was at most 200 nM throughout. With `CO[C@@H](C)CNCc1cc(F)c2c(c1)C(=O)N(c1cc(-c3ccc(C#N)cc3-c3nncn3C)cc(C3CC3)n1)C2` [AKW-1, 4-{2-Cyclopropyl-6-[4-fluoro-6-({[(2S)-2-methoxypropyl]amino}methyl)-1-oxo-3H-isoindol-2-yl]pyridin-4-yl}-3-(4-methyl-1,2,4-triazol-3-yl)benzonitrile], the half-maximal inhibitory concentration (IC50) in assay [1] and in assay [2] was at most 200 nM in each case. With `C[C@H](NCC1CCC1)c1ccc2c(c1)C(=O)N(c1cc(-c3ccc(C#N)cc3-c3nncn3C)cc(C3CC3)n1)C2` [AKB-1, (S)-4-(2-(6-(1-((Cyclobutylmethyl)amino)ethyl)-1-oxoisoindolin-2-yl)-6-cyclopropylpyridin-4-yl)-3-(4-methyl-4H-1,2,4-triazol-3-yl)benzonitrile], the IC50 in assay [1] and in assay [2] was at most 200 nM in each case.

In the case of `CCOc1cc(-c2ccc(F)cc2-c2nncn2C)cc(N2Cc3ccc(CO)cc3C2=O)n1` [ANS-1], in assay [2], the IC50 is 200 to 1000 nM.

These data come from patent US12325697B2 (Nimbus Clio, Inc., priority 2021, dated 2025).
